Laboratory results published in ChEMBL document CHEMBL1687812, “Interplay between drug efflux and antioxidants in Escherichia coli resistance to antibiotics” (2010).
Converted amounts (≈) assume the structure as drawn. The source made the active and inactive calls. No cut-off for these calls is given here.

Columns and labels:
Escherichia coli [1] = assay: Antibacterial activity against gspS deficient Escherichia coli JW2956-1; type: functional
Escherichia coli [2] = assay: Antibacterial activity against wild type Escherichia coli BW25113; type: functional
Escherichia coli [3] = assay: Antibacterial activity against speE deficient Escherichia coli JW0117-1; type: functional
Escherichia coli [4] = assay: Antibacterial activity against tolC deficient Escherichia coli GD100; type: functional
Escherichia coli [5] = assay: Antibacterial activity against tolC, speE deficient Escherichia coli GD106; type: functional
Escherichia coli [6] = assay: Antibacterial activity against ygiBC, yjfMC, gspS deficient Escherichia coli GD108; type: functional
Escherichia coli [7] = assay: Antibacterial activity against gshB deficient Escherichia coli JW2914-1; type: functional
Escherichia coli [8] = assay: Antibacterial activity against tolC, gshB deficient Escherichia coli GD107; type: functional
Escherichia coli [9] = assay: Antibacterial activity against tolC deficient Escherichia coli GD100 presence of 15 mM of glutathione; type: functional, organism-based
Escherichia coli [10] = assay: Antibacterial activity against kanamycin-resistant acrAB, acrEF deficient Escherichia coli W4680AE presence of 5 mM of glutathione; type: functional
Escherichia coli [11] = assay: Antibacterial activity against kanamycin-resistant acrAB, acrEF deficient Escherichia coli W4680AE presence of 15 mM of glutathione; type: functional
Escherichia coli [12] = assay: Antibacterial activity against wild type Escherichia coli BW25113 presence of 10 mM of glutathione; type: functional
Escherichia coli [13] = assay: Antibacterial activity against tolC deficient Escherichia coli GD100 absence of glutathione; type: functional
Escherichia coli [14] = assay: Antibacterial activity against wild type Escherichia coli BW25113 presence of 5 mM of glutathione; type: functional
Escherichia coli [15] = assay: Antibacterial activity against kanamycin-resistant acrAB, acrEF deficient Escherichia coli W4680AE absence of glutathione; type: functional
Escherichia coli [16] = assay: Antibacterial activity against tolC deficient Escherichia coli GD100 presence of 5 mM of glutathione; type: functional
Escherichia coli [17] = assay: Antibacterial activity against kanamycin-resistant acrAB, acrEF deficient Escherichia coli W4680AE presence of 10 mM of glutathione; type: functional
Escherichia coli [18] = assay: Antibacterial activity against tolC deficient Escherichia coli GD100 presence of 10 mM of glutathione; type: functional
Escherichia coli [19] = assay: Antibacterial activity against wild type Escherichia coli BW25113 presence of 15 mM of glutathione; type: functional
Escherichia coli [20] = assay: Antibacterial activity against wild type Escherichia coli BW25113 absence of glutathione; type: functional

Row | Compound | MIC (Escherichia coli [1]) | MIC (Escherichia coli [2]) | MIC (Escherichia coli [3]) | MIC (Escherichia coli [4]) | MIC (Escherichia coli [5]) | MIC (Escherichia coli [6]) | MIC (Escherichia coli [7]) | MIC (Escherichia coli [8]) | MIC (Escherichia coli [9]) | MIC (Escherichia coli [10]) | MIC (Escherichia coli [11]) | MIC (Escherichia coli [12]) | MIC (Escherichia coli [13]) | MIC (Escherichia coli [14]) | MIC (Escherichia coli [15]) | MIC (Escherichia coli [16]) | MIC (Escherichia coli [17]) | MIC (Escherichia coli [18]) | MIC (Escherichia coli [19]) | MIC (Escherichia coli [20])
1 | CN[C@@H]1[C@H](O)[C@H](NC)[C@H]2O[C@@]3(O)C(=O)C[C@@H](C)O[C@H]3O[C@@H]2[C@H]1O [SPECTINOMYCIN] | 25 µg/mL (≈ 75.2 µM) | 25 µg/mL (≈ 75.2 µM) | 25 µg/mL (≈ 75.2 µM) | 12.5 µg/mL (≈ 37.6 µM) | 25 µg/mL (≈ 75.2 µM) | 25 µg/mL (≈ 75.2 µM) | 25 µg/mL (≈ 75.2 µM) | 12.5 µg/mL (≈ 37.6 µM) |  |  |  |  |  |  |  |  |  |  |  | 
2 | CCn1cc(C(=O)O)c(=O)c2cc(F)c(N3CCNCC3)cc21 [NORFLOXACIN] | 0.02 µg/mL (≈ 0.0626 µM) | 0.04 µg/mL (≈ 0.125 µM) | 0.02 µg/mL (≈ 0.0626 µM) | 0.01 µg/mL (≈ 0.0313 µM) | 0.005 µg/mL (≈ 0.0157 µM) | 0.01 µg/mL (≈ 0.0313 µM) | 0.04 µg/mL (≈ 0.125 µM) | 0.0025 µg/mL (≈ 0.00783 µM) | Active | 0.01 µg/mL | 0.16 µg/mL | 0.64 µg/mL | 0.01 µg/mL (≈ 0.0313 µM) | 0.16 µg/mL | 0.005 µg/mL (≈ 0.0157 µM) | 0.02 µg/mL | 0.02 µg/mL | 0.08 µg/mL | 1.28 µg/mL | 0.04 µg/mL (≈ 0.125 µM)
3 | CC1(C)S[C@@H]2[C@H](NC(=O)[C@H](N)c3ccccc3)C(=O)N2[C@H]1C(=O)O [AMPICILLIN] | 10 µg/mL (≈ 28.6 µM) | 5 µg/mL (≈ 14.3 µM) | 5 µg/mL (≈ 14.3 µM) | 5 µg/mL (≈ 14.3 µM) | 5 µg/mL (≈ 14.3 µM) | 5 µg/mL (≈ 14.3 µM) | 10 µg/mL (≈ 28.6 µM) | 5 µg/mL (≈ 14.3 µM) |  |  |  |  |  |  |  |  |  |  |  | 
4 | NCC[C@H](O)C(=O)N[C@@H]1C[C@H](N)[C@@H](O[C@H]2O[C@H](CN)[C@@H](O)[C@H](O)[C@H]2O)[C@H](O)[C@H]1O[C@H]1O[C@H](CO)[C@@H](O)[C@H](N)[C@H]1O [AMIKACIN] | 2 µg/mL (≈ 3.42 µM) | 1 µg/mL (≈ 1.71 µM) | 16 µg/mL (≈ 27.3 µM) | 1 µg/mL (≈ 1.71 µM) | 8 µg/mL (≈ 13.7 µM) | 1 µg/mL (≈ 1.71 µM) | 4 µg/mL (≈ 6.83 µM) | 2 µg/mL (≈ 3.42 µM) |  |  |  |  |  |  |  |  |  |  |  | 
5 | CC[C@H]1OC(=O)[C@H](C)[C@@H](O[C@H]2C[C@@](C)(OC)[C@@H](O)[C@H](C)O2)[C@H](C)[C@@H](O[C@@H]2O[C@H](C)C[C@H](N(C)C)[C@H]2O)[C@](C)(O)C[C@@H](C)C(=O)[C@H](C)[C@@H](O)[C@]1(C)O [ERYTHROMYCIN] | 64 µg/mL (≈ 87.2 µM) | 32 µg/mL (≈ 43.6 µM) | 32 µg/mL (≈ 43.6 µM) | 1 µg/mL (≈ 1.36 µM) | 1 µg/mL (≈ 1.36 µM) | 64 µg/mL (≈ 87.2 µM) | 64 µg/mL (≈ 87.2 µM) | 1 µg/mL (≈ 1.36 µM) | Active | 4 µg/mL | 32 µg/mL | 512 µg/mL | 4 µg/mL (≈ 5.45 µM) | 512 µg/mL | 4 µg/mL (≈ 5.45 µM) | 4 µg/mL | 8 µg/mL | 4 µg/mL | 512 µg/mL | 128 µg/mL (≈ 174 µM)
6 | NC[C@H]1O[C@H](O[C@H]2[C@H](O)[C@@H](O[C@H]3O[C@H](CO)[C@@H](O)[C@H](N)[C@H]3O)[C@H](N)C[C@@H]2N)[C@H](O)[C@@H](O)[C@@H]1O [KANAMYCIN] | 1.56 µg/mL (≈ 3.22 µM) | 0.78 µg/mL (≈ 1.61 µM) | 12.5 µg/mL (≈ 25.8 µM) | 0.78 µg/mL (≈ 1.61 µM) | 6.25 µg/mL (≈ 12.9 µM) | 1.56 µg/mL (≈ 3.22 µM) | 6.25 µg/mL (≈ 12.9 µM) | 3.12 µg/mL (≈ 6.45 µM) | Active |  |  | 50 µg/mL | 1.56 µg/mL (≈ 3.22 µM) | 25 µg/mL |  | 25 µg/mL |  | 50 µg/mL | 50 µg/mL | 1.56 µg/mL (≈ 3.22 µM)
7 | CO[C@@H]1[C@@H](OC(N)=O)[C@@H](O)[C@H](Oc2ccc3c(O)c(NC(=O)c4ccc(O)c(CC=C(C)C)c4)c(=O)oc3c2C)OC1(C)C [NOVOBIOCIN] | 64 µg/mL (≈ 104 µM) | 32 µg/mL (≈ 52.2 µM) | 64 µg/mL (≈ 104 µM) | 1 µg/mL (≈ 1.63 µM) | 1 µg/mL (≈ 1.63 µM) | 32 µg/mL (≈ 52.2 µM) | 256 µg/mL (≈ 418 µM) | 1 µg/mL (≈ 1.63 µM) |  |  |  |  |  |  |  |  |  |  |  | 
